Patent US10844064B2, “sGC stimulators” (Cyclerion Therapeutics, Inc., priority 2014, dated 2020)
Several values for one entry are separate records, joined by “and”; a condition that tells them apart may be missing. Equal entries are not always repeated.

These molecules were tested against T1, sGC enzyme (Homo sapiens, UniProt Q02108+Q02153) (assay: cGMP GloSensor cell-based assay, 384-well format (Example 2B)). Conditions: HEK293 GloSensor 40F cGMP cells, 10 μM DETA-NONOate; 50% of high control response (Compound Y); read-out: sGC_HEK_GloSensor EC50/IC50 Abs (Norm) (nM) Binned.
T1 construct: host or cells: HEK293 expressing GloSensor 40F cGMP
T1 sequence (Q02108 1-690): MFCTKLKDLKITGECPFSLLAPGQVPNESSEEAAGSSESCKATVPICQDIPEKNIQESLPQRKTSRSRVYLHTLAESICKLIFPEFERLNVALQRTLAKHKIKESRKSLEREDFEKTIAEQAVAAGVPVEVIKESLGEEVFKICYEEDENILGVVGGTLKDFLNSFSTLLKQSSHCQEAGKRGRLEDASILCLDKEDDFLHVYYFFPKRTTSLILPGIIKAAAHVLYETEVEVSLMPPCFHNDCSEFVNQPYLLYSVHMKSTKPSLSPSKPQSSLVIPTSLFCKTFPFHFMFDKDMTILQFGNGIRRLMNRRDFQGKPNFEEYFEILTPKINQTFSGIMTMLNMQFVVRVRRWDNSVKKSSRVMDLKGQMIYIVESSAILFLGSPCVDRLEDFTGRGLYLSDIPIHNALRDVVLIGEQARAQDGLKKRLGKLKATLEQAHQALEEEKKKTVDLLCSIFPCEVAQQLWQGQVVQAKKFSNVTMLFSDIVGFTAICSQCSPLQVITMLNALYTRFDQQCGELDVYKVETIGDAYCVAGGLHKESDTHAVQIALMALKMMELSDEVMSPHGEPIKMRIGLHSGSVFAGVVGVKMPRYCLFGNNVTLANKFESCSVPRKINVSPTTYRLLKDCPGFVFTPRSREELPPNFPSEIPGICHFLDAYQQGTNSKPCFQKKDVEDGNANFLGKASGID
T1 sequence (Q02153 1-619): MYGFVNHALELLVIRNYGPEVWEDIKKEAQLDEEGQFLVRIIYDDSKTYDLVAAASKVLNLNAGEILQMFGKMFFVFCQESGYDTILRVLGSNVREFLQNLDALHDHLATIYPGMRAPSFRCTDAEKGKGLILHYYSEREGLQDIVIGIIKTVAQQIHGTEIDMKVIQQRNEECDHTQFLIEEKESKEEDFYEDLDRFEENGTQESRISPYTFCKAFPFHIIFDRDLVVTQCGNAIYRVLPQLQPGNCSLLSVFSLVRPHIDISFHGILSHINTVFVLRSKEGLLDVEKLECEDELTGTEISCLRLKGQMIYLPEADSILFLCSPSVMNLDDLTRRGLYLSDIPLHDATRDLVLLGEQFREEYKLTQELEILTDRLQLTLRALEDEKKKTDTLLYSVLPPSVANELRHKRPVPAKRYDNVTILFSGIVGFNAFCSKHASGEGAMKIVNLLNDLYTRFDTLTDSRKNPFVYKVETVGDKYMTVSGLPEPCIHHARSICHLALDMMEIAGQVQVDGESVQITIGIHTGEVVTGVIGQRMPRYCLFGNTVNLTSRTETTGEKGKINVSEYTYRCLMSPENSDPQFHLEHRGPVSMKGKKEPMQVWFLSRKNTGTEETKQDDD
Procedure: Data were normalized to a high control using the following equation: 100*(Sample—Low Control)/(High Control—Low Control), where the low control is the average of 16 samples treated with 1% DMSO, and the high control is the average of 16 samples treated with 30 μM of Compound Y depicted below. Data were fit using a 4-parameter fit (log(agonist) vs. response variable slope) using GraphPad Prism Software v.5. n=2 for all compounds. […] Compounds failing to elicit a minimum response of 50% are reported as >30 μM. For compounds run in duplicate or n higher than 2, the result herein given is the geometric mean of the several results obtained.
Human embryonic kidney cells (HEK293) cells expressing GloSensor™ 40F cGMP (Part No: CS182801, Promega) were used to evaluate the activity of test compounds. The luminescent biosensors (engineered luciferase) that were incorporated into these cells detect cGMP formed by the compounds stimulating the sGC enzyme and emit luminescence.
cGMP GloSensor cells were maintained in Dulbecco's Modification of Eagle's Medium (DMEM) supplemented with fetal bovine serum (FBS) (10% final) and hygromycine (200 μg/ml). The day before assay, cells were plated in DMEM with 10% FBS in a 50 μL volume at a density of 1.5×10^4 cells/well in a poly-D-lysine coated 384-well flat white-bottom plate (Corning Cat No 35661). Cells were incubated overnight at 37° C. in a humidified chamber with 5% CO2. The next day, medium was removed and cells were replaced with 40 μl/well of GloSensor™, […] (Promega Cat No E1291). Cells were treated for 90 minutes at 25° C. to allow the substrate to equilibrate in the cells. Test compounds and Diethylenetriamine NONOate (DETA-NONOate) was diluted to […] in serum-free CO2 independent medium and serally diluted at 4× dilutions to create 5× dose curve from which 10 ul was added to the wells (x uM concentration for test compound solution and 10 μM concentration for DETA-NONOate solution; wherein x is one of the following final concentrations).
For the kinetics studies, luminescense was measured right away for 0.2 sec per well with Envision (Perkin Elmer model No). For endpoint SAR screening, data were collected after 55 min incubation at room temperature.
Data analysis was carried out as indicated above in Example 2A.
Molecule `CC1(C)C(=O)Nc2nc(-c3cc(C#N)n(Cc4ccccc4F)n3)nnc21` [Compound I-69] has an EC50 of 100 to 1000 nM. `CC(=O)c1cc(-c2ncc3c(n2)NC(=O)C3(C)C)nn1Cc1ccccc1F` [Compound I-25] was tested, and the EC50 was 100 to 1000 nM. `CC1(C)C(=O)Nc2nc(-c3ccn(Cc4ccccc4F)n3)nc(NCC3CC3)c21` [Compound I-75] gave an EC50 of 100 to 1000 nM. In the case of `CC(C)Oc1cc(-c2ncc3c(n2)NC(=O)C3(C)C)nn1Cc1ccccc1F` [Compound I-36], the EC50 is reported as > 1000 nM. `CC(=O)c1cc(-c2nnc3c(n2)NC(=O)C3(C)C)nn1Cc1ccccc1F` [Compound I-70] was tested, and the EC50 was 100 to 1000 nM. `COc1c(Cl)c(-c2ncc3c(n2)NC(=O)C3(C)C)nn1Cc1ccccc1F` [Compound I-44] was tested, and the EC50 was < 100 nM. For `COc1cc(-c2ncc3c(n2)NC(=O)C3(C)C)nn1Cc1ccc(C(F)(F)F)c(F)c1` [Compound I-64], the EC50 was > 1000 nM. For `CC1(C)C(=O)Nc2nc(-c3cc(OC(F)F)n(Cc4ccccc4F)n3)nc(O)c21` [Compound I-32], the EC50 was 100 to 1000 nM. `COc1cc(-c2ncc3c(n2)NC(=O)C3(C)C)nn1Cc1ccc(C(F)(F)F)cc1` [Compound I-62] was tested, and the EC50 was > 1000 nM. `CCOc1cc(-c2ncc3c(n2)NC(=O)C3(C)C)nn1Cc1ccccc1F` [Compound I-34] was tested, and the EC50 was > 1000 nM. In the case of `CC1(C)C(=O)Nc2nc(-c3cc(O)n(Cc4ccccc4F)n3)ncc21` [Compound I-29], the EC50 is reported as > 1000 nM. In the case of `COc1cc(-c2ncc3c(n2)N(CC2CC2)C(=O)C3(C)C)nn1Cc1ccccc1F` [Compound I-33], the EC50 is reported as > 1000 nM. Molecule `CC1(C)C(=O)Nc2nc(-c3ccn(Cc4ccccc4F)n3)nc(N)c21` [Compound I-73, 4-amino-2-(1-(2-fluorobenzyl)-1H-pyrazol-3-yl)-5,5-dimethyl-5H-pyrrolo[2,3-d]pyrimidin-6(7H)-one] has an EC50 of 100 to 1000 nM. In the case of `Cn1cc(-c2nc(N)c3c(n2)NC(=O)C3(C)C)nc1Cc1ccccc1F` [Compound I-12], the EC50 is reported as > 1000 nM and < 100 nM. Work on `CC1(C)C(=O)Nc2nc(-n3cc(-c4ccon4)c(Cc4ccccc4F)n3)ncc21` [Compound I-81, 2-(3-(2-fluorobenzyl)-4-(isoxazol-3-yl)-1H-pyrazol-1-yl)-5,5-dimethyl-5H-pyrrolo[2,3-d]pyrimidin-6(7H)-one] yielded an EC50 of 100 to 1000 nM. With `CC1(C)C(=O)Nc2nc(-c3cc(OC(F)F)n(Cc4ccccc4F)n3)ncc21` [Compound I-31] the EC50 was 100 to 1000 nM. `COc1cc(-c2ncc3c(n2)NC(=O)C3(C)C)nn1Cc1ccccc1` [Compound I-52] was tested, and the EC50 was 100 to 1000 nM. `COc1ccc(CN2C(=O)C(C)(C)c3nnc(-n4cc(OC)c(Cc5ccccc5F)n4)nc32)cc1` [Compound I-91, 3-(3-(2-fluorobenzyl)-4-methoxy-1H-pyrazol-1-yl)-5-(4-methoxybenzyl)-7,7-dimethyl-5H-pyrrolo[2,3-e][1,2,4]triazin-6(7H)-one] was tested, and the EC50 was > 30000 nM. In the case of `COc1cc(-c2ncc3c(n2)N(C)C(=O)C3(C)C)nn1Cc1ccccc1F` [Compound I-26], the EC50 is reported as > 1000 nM. With `CC1(C)C(=O)Nc2nc(-c3ccn(Cc4ccccc4F)n3)nc(N3CCOCC3)c21` [Compound I-76] the EC50 was 100 to 1000 nM. Work on `Cc1cn(-c2ncc3c(n2)NC(=O)C3(C)C)nc1Cc1ccccc1F` [Compound I-85] yielded an EC50 of 100 to 1000 nM. Molecule `COc1cc(-c2ncc3c(n2)NC(=O)C3(C)C)nn1Cc1ccc(F)cc1` [Compound I-57] has an EC50 of 100 to 1000 nM. For `Cn1c(=O)[nH]c2nc(-c3cc(-c4ccon4)n(Cc4ccccc4F)n3)ncc21` [Compound I-65], the EC50 was > 30000 nM. For `COc1cn(-c2nc(N)c3c(n2)NC(=O)C3(C)C)nc1Cc1ccccc1F` [Compound I-82, 4-amino-2-(3-(2-fluorobenzyl)-4-methoxy-1H-pyrazol-1-yl)-5,5-dimethyl-5H-pyrrolo[2,3-d]pyrimidin-6(7H)-one], the EC50 was < 100 nM. In the case of `Cc1cn(-c2nc(O)c3c(n2)NC(=O)C3(C)C)nc1Cc1ccccc1F` [Compound I-86], the EC50 is reported as 100 to 1000 nM. In the case of `COc1cc(-c2ncc3c(n2)NC(=O)C3(C)C)nn1Cc1cccc(F)c1` [Compound I-55], the EC50 is reported as < 100 nM. With `Cn1cc(-c2ncc3c(n2)NC(=O)C3(C)C)nc1Cc1ccccc1F` [Compound I-66] the EC50 was > 1000 nM. In the case of `COc1cn(-c2nc(O)c3c(n2)NC(=O)C3(C)C)nc1Cc1ccccc1F` [Compound I-83], the EC50 is reported as < 100 nM. `COc1cc(-c2ncc3c(n2)NC(=O)C3(C)C)nn1Cc1ccccc1Cl` [Compound I-56] gave an EC50 of 100 to 1000 nM. `COc1c(C)c(-c2nc(O)c3c(n2)NC(=O)C3(C)C)nn1Cc1ccccc1F` [Compound I-42] was tested, and the EC50 was > 1000 nM. With `Cc1cn(-c2nc(N)c3c(n2)NC(=O)C3(C)C)nc1Cc1ccccc1F` [Compound I-84, 4-amino-2-(3-(2-fluorobenzyl)-4-methyl-1H-pyrazol-1-yl)-5,5-dimethyl-5H-pyrrolo[2,3-d]pyrimidin-6(7H)-one] the EC50 was < 100 nM. `COc1cc(-c2nc(O)c3c(n2)NC(=O)C3(C)C)nn1Cc1ccccc1F` [Compound I-28] showed an EC50 of 100 to 1000 nM. Work on `COc1cn(-c2nnc3c(n2)NC(=O)C3(C)C)nc1Cc1ccccc1F` [Compound I-67] yielded an EC50 of 100 to 1000 nM. With `CC1(C)C(=O)Nc2nc(-c3cc(C#N)n(Cc4ccccc4F)n3)ncc21` [Compound I-45] the EC50 was < 100 nM. In the case of `COc1c(Br)c(-c2ncc3c(n2)NC(=O)C3(C)C)nn1Cc1ccccc1F` [Compound I-40], the EC50 is reported as < 100 nM. In the case of `COc1cc(-c2ncc3c(n2)NC(=O)C3(C)C)nn1Cc1ccccc1F` [Compound I-24], the EC50 is reported as 100 to 1000 nM. For `COc1cc(-c2ncc3c(n2)NCC3(C)C)nn1Cc1ccccc1F` [Compound I-27], the EC50 was 100 to 1000 nM. In the case of `COc1cc(-c2nc(N)c3c(n2)NC(=O)C3(C)C)nn1Cc1cncnc1` [Compound I-92, 4-amino-2-(5-methoxy-1-(pyrimidin-5-ylmethyl)-1H-pyrazol-3-yl)-5,5-dimethyl-5H-pyrrolo[2,3-d]pyrimidin-6(7H)-one], the EC50 is reported as > 1000 nM. For `COc1cc(-c2nc(N)c3c(n2)NC(=O)C3(C)C)nn1Cc1ccccc1` [Compound I-51, 4-amino-2-(1-benzyl-5-methoxy-1H-pyrazol-3-yl)-5,5-dimethyl-5H-pyrrolo-[2,3-d]pyrimidin-6(7H)-one], the EC50 was < 100 nM. Work on `CC1(C)C(=O)Nc2nc(-c3ccn(Cc4ccccc4F)n3)ncc21` [Compound I-74] yielded an EC50 of 100 to 1000 nM. In the case of `COc1cc(-c2ncc3c(n2)NC(=O)C3(C)C)nn1Cc1ccc(C)cc1` [Compound I-58], the EC50 is reported as < 100 nM. With `CC1(C)C(=O)Nc2nc(-n3cc(O)c(Cc4ccccc4F)n3)ncc21` [Compound I-37] the EC50 was > 1000 nM. Work on `COc1cc(-c2ncc3c(n2)NC(=O)C3(C)C)nn1Cc1cccc(C#N)c1` [Compound I-60] yielded an EC50 of 100 to 1000 nM.
